Legend:
[1] = system: VEGF secretion by human dermal papilla cells; assay: VEGF secretion by human dermal papilla cells, ELISA; type: cell-based; conditions: for Average % VEGF Secretion: % control vs untreated control cells, overnight, typically 0.1, 1, 10 μg/ml
Description: (§1) The ability of each of the ingredients in the compositions of the present invention to stimulate or increase secretion of growth factors, such as VEGF and KGF was measured. One of ordinary skill in the art will appreciate that there are numerous methods for measuring the ability of a substance to stimulate secretion of a growth factor. One example of such a method is set forth below and described in Lachgar S., et al., 1998. “Minoxidil upregulates the expression of vascular endothelial growth factor in human hair dermal papilla cells.” Br J. Dermatol. 138:407-11, the entire contents of which are incorporated by reference herein.
(§2) For example, to measure the ability of a compound to stimulate secretion of a growth factor, 100 mg of each test sample in powder form was measured. A 50 mg/ml total extract of the sample was then prepared by sequential addition of DMSO:ethanol:water in a ratio of 5:3:2. One of ordinary skill in the art will understand that other amounts of sample may be used. For example, to prepare a 100 mg sample, 1 mL DMSO, 0.6 ml ethanol, and 0.4 ml water are mixed together.
(§3) This solution is extensively mixed by vortexing and incubating for 10 minutes in a sonic water bath. Each sample ingredient is diluted from the stock concentration of 50 mg/ml to a test concentration (i.e., typically, 0.1, 1, and 10 μg/ml) in tissue culture media.
(§4) The effect of each test sample ingredient may be measured using human dermal papilla cells, which may be purchased from Cell Applications (San Diego, Calif.). In particular, the cells are plated at 3.5×10^4/well in a standard 24 well tissue culture plate using a proprietary medium supplied by the company. Following plating, the cells are incubated overnight. The following day, the media in the wells is aspirated and replaced with fresh media containing the diluted sample ingredient. The cells are again incubated overnight with the samples.
(§5) Growth factors in the cell culture supernatants are assayed using commercially available ELISA kits according to the manufacture's specifications. For example, an ELISA assay may be run to detected either KGF, VEGF, or both. An ELISA kit for detecting KGF may be purchased from R&D Systems (Minneapolis, Minn.). An ELISA kit for detecting VEGF may be purchased from Biosource International (Camarillo, Calif.).
(§6) Data are reported as % control compared to the level of growth factor secreted from untreated control cells.

[2] = system: KGF secretion by human dermal papilla cells; assay: KGF secretion by human dermal papilla cells, ELISA; type: cell-based; conditions: for Average % KGF Secretion: % control vs untreated control cells, overnight, typically 0.1, 1, 10 μg/ml
Description: as §1, §2, §3, §4, §5, §6

[3] = system: DHT synthesis in DU-145 cells; assay: Dihydrotestosterone (DHT) synthesis by human prostate cells (DU-145), DHT ELISA; type: cell-based; conditions: for Average % DHT Synthesis Observed: % control vs DHT in untreated control cells, testosterone 1 nM, 6 hours, test concentrations typically 0.1, 1, 10 μg/ml
proteasome = assay: Proteasome inhibition, fluorescent substrate kit; type: biochemical; conditions: % control vs proteasome activity without inhibitor or test sample; test concentration given as 50 mg/ml
Description: The ability of each of the ingredients in the compositions of the present invention to inhibit proteasome activity was measured. One of ordinary skill in the art will appreciate that there are numerous methods for measuring the ability of a substance to inhibit proteasome activity. One example of such a method is set forth below and described in U.S. Pat. No. 6,410,512, the entire contents of which are incorporated by reference herein.
as §2, with “inhibit proteasome activity,” for “stimulate secretion of a growth factor,”, “neat” for “powder”
This solution is extensively mixed by vortexing and incubating for 10 minutes in a sonic water bath. Each sample ingredient is diluted from the stock concentration to a test concentration of 50 mg/ml in proteasome reaction buffer media.
Inhibition of proteasome activity may be assayed using a proteasome kit that is commercially available, for example from Boston Biochem (Boston, Mass.). Test sample ingredients are first added to the proteasome provided with the kit. The fluorescent proteasome substrate is then added and cleavage of the substrate by the proteasome is monitored using a fluorescence plate reader. Data are expressed as % control compared to proteasome activity without any inhibitor or test sample added.
as §6

Molecule: O=c1cc(-c2ccc(O)c(-c3c(O)cc(O)c4c(=O)cc(-c5ccc(O)cc5)oc34)c2)oc2cc(O)cc(O)c12 [Amentoflavone]
- Average % VEGF Secretion [1]: 186.2%
- Average % KGF Secretion [2]: 209.5%
- Average % DHT Synthesis Observed [3]: 163.9%

Molecule: CC1=C(/C=C/C(C)=C/C=C/C(C)=C/C=C/C=C(C)/C=C/C=C(C)/C=C/C2=C(C)C(=O)[C@@H](O)CC2(C)C)C(C)(C)C[C@H](O)C1=O [Astaxanthin]
- Average % Proteasome Activity (proteasome): 114.0%
- Effect on VEGF secretion, in words (summary of Table 3) [1]: most potent stimulators of VEGF
- Average % VEGF Secretion [1]: 249.4%
- Average % KGF Secretion [2]: 327.1%
- Average % DHT Synthesis Observed [3]: 103.9%

Molecule: C[C@@H]1O[C@@H](O[C@H]2C(=O)c3c(O)cc(O)cc3O[C@@H]2c2ccc(O)c(O)c2)[C@H](O)[C@H](O)[C@H]1O [Astilbin]
- Average % Proteasome Activity (proteasome): 47.7%
- Average % VEGF Secretion [1]: 122.9%
- Effect on KGF secretion, in words (summary of Table 3) [2]: most potent inhibitors of KGF secretion
- Average % KGF Secretion [2]: 85.4%
- Average % DHT Synthesis Observed [3]: 78.0%

Molecule: O=C(CCCCc1ccc2c(c1)OCO2)N1CCCCC1 [Cosmoperine ™, tetrahydropiperine]
- Average % Proteasome Activity (proteasome): 67.6%
- Average % VEGF Secretion [1]: 172.5%
- Effect on KGF secretion, in words (summary of Table 3) [2]: most potent inhibitors of KGF secretion
- Average % KGF Secretion [2]: 75.1%
- Average % DHT Synthesis Observed [3]: 130.1%

Molecule: O=c1cc(-c2ccc(O)c(O)c2)oc2cc(O)cc(O)c12 [Luteolin]
- Average % Proteasome Activity (proteasome): 76.4%
- Average % VEGF Secretion [1]: 123.2%
- Average % KGF Secretion [2]: 147.8%
- Average % DHT Synthesis Observed [3]: 96.2%

Molecule: disodium lauraminodipropionate tocopheryl phosphate [Vital ET ™]
- Average % Proteasome Activity (proteasome): 68.3%
- Average % VEGF Secretion [1]: 107.9%
- Average % KGF Secretion [2]: 103.0%
- Effect on DHT synthesis, in words (summary of Table 2) [3]: most potent inhibitors of DHT synthesis
- Average % DHT Synthesis Observed [3]: 72.1%
